# Laboratory results taken from patent publication US11643430B2, “Porphyrin compound or salt thereof, cancer therapeutic agent, photosensitizer, and fluorescent probe” (M.T.3, Inc., priority 2020, dated 2023).
# What was measured:
# [1] = Quantum yield of singlet oxygen by 1270 nm phosphorescence; type: physicochemical; details: in ethanol, absorbance 0.1, irradiated at 355 nm, phosphorescence at 1270 nm, TPPS standard; sodium salt
# Method: (§1) Next, the fluorescence quantum yields (Φf) and fluorescence lifetimes (τf) of the compounds were measured. Moreover, the quantum yields (ΦΔ) of singlet oxygen generated from the compounds of Structural Formulae (IIa) and (III) were measured.
# Next, the measurement of ΦΔ will be described. First, the compounds of Structural Formula (IIa) and (III) were each dissolved in ethanol at such a concentration that gave an absorbance of 0.1, and then were irradiated with light at 355 nm using Nd^3+:YAG LASER (LS-2137U, manufactured by Lotis TII). Next, singlet oxygen was measured using a self-produced infrared emission measurement apparatus in which a near-infrared photomultiplier tube (R5509-42, manufactured by Hamamatsu Photonics K.K.) is used. It should be noted that singlet oxygen was measured 17 times, and the average value was shown as a phosphorescence spectrum in FIG. 4. Singlet oxygen emits phosphorescence at a near-infrared wavelength 1270 nm. Therefore, in this specification, ΦΔ was determined by measuring the intensity of such phosphorescence. TPPS (ΦΔ=0.63) was used as a standard substance for determination of ΦΔ. ΦΔ of the compound of Structural Formula (IIa) and ΦΔ of the compound of Structural Formula (III) were determined as 0.57 and 0.53, respectively.
# Human-derived A549 cells = assay: Efficiency of uptake by cancer cells; type: cell-based; details: 3 μM, 12 hours incubation, fluorescence ex 418 nm / em 646 nm
# Description: The compound of Structural Formula (III) to which a sulfur-containing sugar-chain is linked is more likely to accumulate in tumor. Regarding such an improvement in the accumulation, the following describes the evaluation of the efficiency of uptake of the compounds of structural Formulae (IIa) and (III) by cancer cells.
# Human-derived A549 cells were used as cancer cells. Dulbecco's Modified Eagle Medium (DMEM) supplemented with 10% Fetal Bovine Serum (FBS: manufactured by EQUITECH-BIO, INC.) and 1% Penicillin Streptomycin Glutamine (Invitrogen (trademark)) was used as a culture medium, which will be described later. Phosphate buffered saline (PBS) was used as a cell washing solution, and PBS containing 0.05% trypsin and 0.02% EDTA was used as a cell detaching solution. A circular plastic petri dish (Greiner Bio-one, 628160) with a diameter of 6 cm was used as a culture container.
# First, an A549 cell suspension was cultured on a culture medium. 100 μL of the cell suspension was added to each well of a black 96-well plate and cultured at 37° C. in a 5% CO2 atmosphere for a day. […] Furthermore, the concentrations of the photosensitizing agents inside the cells were quantified using a fluorescence micro plate reader (Infinite M200 Pro, manufactured by TECAN). For the fluorescence observation, the excitation wavelength was 418 nm, and the observation wavelength was 646 nm. […]
# [2] = Fluorescence lifetime from fluorescence decay curves; type: physicochemical; details: monoexponential curve fitting, deconvolution method
# Method: as §1
# Each of the fluorescence decay curves was subjected to curve fitting with a monoexponential function using a deconvolution method, and thus τf was determined.
# [3] = Fluorescence quantum yield, absolute PL quantum yield spectrometer; type: physicochemical
# Method: as §1
# [4] = standard for determination of ΦΔ; cited from earlier work
Molecule,quantum yield of singlet oxygen (ΦΔ) [1],relative uptake efficiency versus compound of Structural Formula (III) (Human-derived A549 cells) [times],fluorescence lifetime (τf) [2],fluorescence quantum yield (Φf) [3],quantum yield of singlet oxygen (ΦΔ) of standard substance [4]
"3-trimethylsilyl-1-benzenecarboxyamide,N-[3-n-propyl-α-D-quinovopyranoside]-5-[10,15,20-tris(3-methoxycarbonyl-5-trimethylsilylphenyl)porphyrin] sodium salt [IIa]",0.53,1.8,9.2,0.063,–
"COC(=O)c1cc(-c2c3nc(c(-c4cc(C(=O)OC)cc([Si](C)(C)C)c4)c4ccc([nH]4)c(-c4cc(C(=O)OC)cc([Si](C)(C)C)c4)c4nc(c(-c5cc(C(=O)NCCCO[C@H]6O[C@H](CO)[C@@H](O)[C@H](O)[C@H]6O)cc([Si](C)(C)C)c5)c5ccc2[nH]5)C=C4)C=C3)cc([Si](C)(C)C)c1 [IId, 3-trimethylsilyl-1-benzenecarboxyamide,N-[3-n-propyl-α-D-glucopyranoside]-5-[10,15,20-tris(3-methoxycarbonyl-5-trimethylsilylphenyl)porphyrin]]",–,–,9.3,0.056,–
O=S(=O)(O)c1ccc(-c2c3nc(c(-c4ccc(S(=O)(=O)O)cc4)c4ccc([nH]4)c(-c4ccc(S(=O)(=O)O)cc4)c4nc(c(-c5ccc(S(=O)(=O)O)cc5)c5ccc2[nH]5)C=C4)C=C3)cc1 [TPPS],–,–,–,–,0.63
